Laboratory results reported in ChEMBL document CHEMBL1201862, “PubChem BioAssay data set” (2004).
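Tested at 5 concentrations; 48 h exposure; 96-well plates; endpoints linearly interpolated, else capped at highest concentration. GI50 = concentration required for 50% inhibition of growth.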 Activity calls are given as the source filed them. Rule as the data show it: active = GI50 up to about 1.1 µM and inactive = higher.

What was measured:
Assay in all cases: NCI tumour cell line growth inhibition, 48 h
[1] = system: HT-29
[2] = system: HOP-62
[3] = system: CAKI-1
[4] = system: SNB-19
[5] = system: UO-31
[6] = system: SF-268
[7] = system: SK-OV-3
[8] = system: COLO 205
[9] = system: HL-60
[10] = system: LOX IMVI
[11] = system: SF-539
[12] = system: HCC 2998
[13] = system: HCT-15
[14] = system: K562
[15] = system: CCRF-CEM
[16] = system: OVCAR-3
[17] = system: Malme-3M

| Compound | GI50 [1] | GI50 [2] | GI50 [3] | GI50 [4] | GI50 [5] | GI50 [6] | GI50 [7] | GI50 [8] | GI50 [9] | GI50 [10] | GI50 [11] | GI50 [12] | GI50 [13] [µM] | GI50 [14] | GI50 [15] | GI50 [16] | GI50 [17] |
| --- | --- | --- | --- | --- | --- | --- | --- | --- | --- | --- | --- | --- | --- | --- | --- | --- | --- |
| Nc1nc(Cl)cc(NCCCCCCCCNc2cc(Cl)nc(N)n2)n1 | 12.3 µM (inactive) | 27.8 µM (inactive) | 8.81 µM (inactive) | > 100 µM (inactive) | 22 µM (inactive) | 36.8 µM (inactive) | > 100 µM (inactive) | 26.4 µM (inactive) | 1.46 µM (inactive) | 3.82 µM (inactive) | 28.7 µM (inactive) | 65.6 µM (inactive) | 8.59 | 2.2 µM (inactive) | 73.3 µM (inactive) | 3.2 µM (inactive) | – |
| COc1ccc2c(c1)C(=O)C1CC(=O)CCC21 (stereo not given) | > 100 µM (inactive) | > 100 µM (inactive) | > 100 µM (inactive) | > 100 µM (inactive) | > 100 µM (inactive) | > 100 µM (inactive) | > 100 µM (inactive) | > 100 µM (inactive) | > 100 µM (inactive) | > 100 µM (inactive) | > 100 µM (inactive) | > 100 µM (inactive) | > 100 | > 100 µM (inactive) | > 100 µM (inactive) | > 100 µM (inactive) | > 100 µM (inactive) |
| O=C(O)c1c([N+](=O)[O-])cc(C(F)(F)F)cc1[N+](=O)[O-] | > 100 µM (inactive) | > 100 µM (inactive) | > 100 µM (inactive) | > 100 µM (inactive) | > 100 µM (inactive) | > 100 µM (inactive) | – | > 100 µM (inactive) | > 100 µM (inactive) | > 100 µM (inactive) | > 100 µM (inactive) | – | > 100 | > 100 µM (inactive) | > 100 µM (inactive) | > 100 µM (inactive) | – |
| O=C1O[C@H](c2ccccc2)[C@@H]2CC3(CCN12)OCCO3 | > 100 µM (inactive) | > 100 µM (inactive) | > 100 µM (inactive) | > 100 µM (inactive) | > 100 µM (inactive) | > 100 µM (inactive) | – | > 100 µM (inactive) | > 100 µM (inactive) | > 100 µM (inactive) | > 100 µM (inactive) | – | > 100 | > 100 µM (inactive) | > 100 µM (inactive) | > 100 µM (inactive) | – |
| CC(CCCOC(c1ccccc1)(c1ccccc1)c1ccccc1)OC(=O)Nc1ccccc1 (stereo not given) | 13.1 µM (inactive) | 14.8 µM (inactive) | 13.5 µM (inactive) | – | 11.6 µM (inactive) | 12.8 µM (inactive) | 14.2 µM (inactive) | 18.2 µM (inactive) | 11.6 µM (inactive) | 12.7 µM (inactive) | 17.8 µM (inactive) | 14.1 µM (inactive) | 14.4 | 11.3 µM (inactive) | 14.6 µM (inactive) | 14 µM (inactive) | 15.8 µM (inactive) |
| CC(=O)N1[C@H](C(=O)O)CS[C@H]1c1ccc(F)cc1 | > 100 µM (inactive) | > 100 µM (inactive) | > 100 µM (inactive) | > 100 µM (inactive) | > 100 µM (inactive) | > 100 µM (inactive) | – | > 100 µM (inactive) | > 100 µM (inactive) | > 100 µM (inactive) | > 100 µM (inactive) | > 100 µM (inactive) | > 100 | > 100 µM (inactive) | > 100 µM (inactive) | > 100 µM (inactive) | > 100 µM (inactive) |
| O=C1OC(=O)C23CSCC12C1C=CC3O1 (stereo not given) | > 100 µM (inactive) | > 100 µM (inactive) | > 100 µM (inactive) | > 100 µM (inactive) | > 100 µM (inactive) | > 100 µM (inactive) | > 100 µM (inactive) | > 100 µM (inactive) | > 100 µM (inactive) | > 100 µM (inactive) | > 100 µM (inactive) | > 100 µM (inactive) | > 100 | > 100 µM (inactive) | > 100 µM (inactive) | > 100 µM (inactive) | > 100 µM (inactive) |
| N#CC1CC2(C1)OCCS2 (stereo not given) | > 100 µM (inactive) | > 100 µM (inactive) | > 100 µM (inactive) | > 100 µM (inactive) | > 100 µM (inactive) | > 100 µM (inactive) | – | > 100 µM (inactive) | > 100 µM (inactive) | > 100 µM (inactive) | > 100 µM (inactive) | > 100 µM (inactive) | > 100 | > 100 µM (inactive) | > 100 µM (inactive) | > 100 µM (inactive) | – |
| CCC1(C(=O)OC)CCc2c(OC)ccc(OC)c2C1=O (stereo not given) | > 100 µM (inactive) | > 100 µM (inactive) | > 100 µM (inactive) | > 100 µM (inactive) | > 100 µM (inactive) | > 100 µM (inactive) | > 100 µM (inactive) | > 100 µM (inactive) | > 100 µM (inactive) | > 100 µM (inactive) | > 100 µM (inactive) | > 100 µM (inactive) | > 100 | > 100 µM (inactive) | > 100 µM (inactive) | > 100 µM (inactive) | > 100 µM (inactive) |
| C/C(CCn1[nH]c(=O)ccc1=O)=N\NC(=O)C(N)=O | > 100 µM (inactive) | > 100 µM (inactive) | > 100 µM (inactive) | > 100 µM (inactive) | > 100 µM (inactive) | > 100 µM (inactive) | – | > 100 µM (inactive) | > 100 µM (inactive) | > 100 µM (inactive) | > 100 µM (inactive) | > 100 µM (inactive) | > 100 | > 100 µM (inactive) | – | > 100 µM (inactive) | > 100 µM (inactive) |
| Cc1c(Cl)cccc1N1C(=O)C(Cl)=C(Cl)C1=O | > 100 µM (inactive) | > 100 µM (inactive) | > 51.8 µM (inactive) | > 100 µM (inactive) | > 100 µM (inactive) | > 100 µM (inactive) | > 100 µM (inactive) | > 65.9 µM (inactive) | – | > 100 µM (inactive) | > 100 µM (inactive) | > 100 µM (inactive) | > 76.9 | 17.9 µM (inactive) | 16.4 µM (inactive) | > 100 µM (inactive) | > 100 µM (inactive) |
| COc1ccc(/C(C)=N/NC(N)=S)c(OC)c1 | > 100 µM (inactive) | > 100 µM (inactive) | > 100 µM (inactive) | > 100 µM (inactive) | > 100 µM (inactive) | > 100 µM (inactive) | > 100 µM (inactive) | > 100 µM (inactive) | 51.3 µM (inactive) | > 100 µM (inactive) | > 100 µM (inactive) | > 100 µM (inactive) | > 100 | > 100 µM (inactive) | > 100 µM (inactive) | > 100 µM (inactive) | > 100 µM (inactive) |
| CCOC(=O)c1cn(Cc2ccccc2)c(=O)n1Cc1ccccc1 | > 100 µM (inactive) | > 100 µM (inactive) | 77.1 µM (inactive) | > 100 µM (inactive) | 48.9 µM (inactive) | > 100 µM (inactive) | > 100 µM (inactive) | > 100 µM (inactive) | 6.93 µM (inactive) | > 100 µM (inactive) | > 100 µM (inactive) | > 100 µM (inactive) | 80.2 | 52 µM (inactive) | 62.8 µM (inactive) | > 100 µM (inactive) | > 100 µM (inactive) |
| O=C(O)C1C2CC3CC2CC31 (stereo not given) | – | > 100 µM (inactive) | > 100 µM (inactive) | > 100 µM (inactive) | > 100 µM (inactive) | > 100 µM (inactive) | > 100 µM (inactive) | > 100 µM (inactive) | > 100 µM (inactive) | > 100 µM (inactive) | > 100 µM (inactive) | – | > 100 | > 100 µM (inactive) | > 100 µM (inactive) | > 100 µM (inactive) | > 100 µM (inactive) |
| Clc1ccccc1C1N2CCCCC2[C@@H]2c3[nH]c4ccccc4c3CCN12 (stereo not given in full) | 17.1 µM (inactive) | 29.9 µM (inactive) | > 10 µM (inactive) | 23 µM (inactive) | 19.5 µM (inactive) | 17.9 µM (inactive) | 21.6 µM (inactive) | 19.3 µM (inactive) | 19.5 µM (inactive) | – | 15.2 µM (inactive) | 18.6 µM (inactive) | 16.2 | 14.3 µM (inactive) | 19.1 µM (inactive) | 16.2 µM (inactive) | 4.84 µM (inactive) |
| CC(C)(O)[C@@H]1CC[C@@]2(C)CCCC(O)C2(O)C1 (stereo not given in full) | > 100 µM (inactive) | > 100 µM (inactive) | > 100 µM (inactive) | > 100 µM (inactive) | > 100 µM (inactive) | > 100 µM (inactive) | > 100 µM (inactive) | > 100 µM (inactive) | > 100 µM (inactive) | > 100 µM (inactive) | > 100 µM (inactive) | > 100 µM (inactive) | > 100 | > 100 µM (inactive) | > 100 µM (inactive) | > 100 µM (inactive) | > 100 µM (inactive) |
| CCOC(=O)C[C@@]12CCCNC1(C)CCc1ccccc12 (stereo not given in full) | > 100 µM (inactive) | > 100 µM (inactive) | – | > 100 µM (inactive) | > 100 µM (inactive) | – | > 100 µM (inactive) | > 100 µM (inactive) | > 100 µM (inactive) | > 100 µM (inactive) | > 100 µM (inactive) | – | > 100 | > 100 µM (inactive) | > 100 µM (inactive) | > 100 µM (inactive) | > 100 µM (inactive) |
| C[C@@H]1C[C@@H]([C@H](O)CC2CC(=O)NC(=O)C2)C(=O)[C@@H](C)C1 [CYCLOHEXIMIDE] | 0.0718 µM (active) | 0.0596 µM (active) | – | 0.0984 µM (active) | 0.0287 µM (active) | 0.0438 µM (active) | 0.127 µM (active) | 0.0352 µM (active) | 0.0485 µM (active) | 0.0374 µM (active) | 0.0431 µM (active) | 0.0378 µM (active) | 0.0433 | 0.0528 µM (active) | < 0.0186 µM (active) | 0.131 µM (active) | 0.0889 µM (active) |
